# Paper PMC5155146, “Thioredoxin-interacting protein regulates haematopoietic stem cell ageing and rejuvenation by inhibiting p38 kinase activity” (Nature Communications, 2016)
# Columns and labels:
# [1] = system: mice; test: 5-FU haematopoietic stress in mice; type: in vivo, mouse
# Protocol: young TXNIP+/+ or T X N IP -/- mice after 5-FU (150 mg kg-1) administration (n=10). NAC was
# i.p. injected 100 m g kg -1 daily starting at da y -1. […] We i.p. injected
# 5- FU (150 mg kg-1) and NAC (100 mg kg-1) then examined ROS in HSCs after 24 hours
# Data are mean ± s.d. Statistical significance was determined using a two-t ailed
# Student’s t -tests. *P< 0.05, **P < 0.01, ***P <0.001.
# [2] = system: TXNIP−/− HSCs; test: ROS and phospho-p38 of LT-HSCs after NAC treatment in vivo; design: species or system mouse; conditions: 12-month-old TXNIP−/− mice, NAC 100 mg kg−1 i.p., after 12 hours; n=3
# Protocol: Supplementary Figure 2. Expression of p38 and TXNIP in HSCs and their interaction.
# (a,b) ROS (a) and phospho- p38 level (b) of LT-HSCs after NAC treatment. We i.p. injected
# 100 mg kg-1 NAC into mice then anal yzed after 12 hours (n=3 ) . (c) Quantitative real-time
# PCR of p38famil y in indicated subsets (n=3). ( d) Western blot anal yses of lin- cells (r epeated
# 3 times). ( e) Real-time PCR of TXNIP i n LT -HSCs (n=3). ( f) Confocal images of TXNIP in
# LT-HSCs (rep eated 3 times). (g) Western blot anal yses of BM cells (rep eated 2 times). ( h,i )
# GST pull-down assa y (repeated 3 times). ( j) Constructed p38 mutant clones. ( k) GST pull-
# down assays between TXNIP and p38 mutants (repeated 3 times). Data are mean ± s.d.
# Statistical significance was determined using a two-tailed Student’s t -tests. **P < 0.01.
# matched WT mice (Fig. 1b). To make the data more consistent, the authors should present
# their data as percentages of bone marrow cells and absolute number of LT-HSCs, SH-HSCs
# Thank you for your valuable comments. We calculated the percentages of bone
# marrow cells and absolute number of LT-HSCs, SH-HSCs and MPPs, and presented
# the results in our new version Supplementary Fig. 1c,d.
# the exhaustion of HSCs in TXNIP-/- mice by high ROS. We have added this text
# “Next, we analyzed the frequency of BM cells and absolute number of LT-HSCs,
# ST-HSCs and MPPs in each mouse. […]
# [3] = Solubility; type: physicochemical; conditions: authors' statement in response to reviewers
# [4] = system: aged HSCs; test: Competitive transplantation of treated HSCs; type: in vivo, mouse; conditions: long-term SB203580-administered recipients; n=6-7 from two experiments (Fig. 3d,e)
# Source text: The repopulation of donor-derived cells was monitored by staining PB from tail vein and BM cells with antibodies against indicated surface markers after 16 weeks.
# [5] = system: TXNIP-p38 interaction; test: TXNIP-p38 interaction (immunoprecipitation, in situ PLA, GST pull-down); type: cell-based; conditions: GST pull-down assay in 293T cells
# [6] = system: old HSCs; test: Polar distribution of Cdc42 in LT-HSCs (confocal); type: cell-based, mouse; conditions: sorted LT-HSCs, 10 μM, 16 h in HSC media; 50-60 HSCs scored for Cdc42 polarity; repeated two times
# Protocol: For phosho-p38 and TXNIP analysis using flow cytometry, total BM cells were first stained with surface markers and then fixed and permeabilized with the Cytofix/Perm Solution (BD Biosciences). For TXNIP staining, the cells were blocked with PBS containing 5% BSA for 30 min at RT and then incubated with primary antibody (1:50 dilution) for 1 h in PBS containing 5% BSA, washed three times with PBS and then incubated with a secondary Alexa Fluor 647 (Life technology; 1:1,000 dilution) for 1 h at RT or for phospho-p38 staining, the cells were incubated with anti-phospho-p38-APC (1:40 dilution) at 4 °C for 30 min in PBS containing 2% FBS. For confocal imaging, freshly isolated LT-HSCs were seeded on fibronectin-coated coverslips at 4 °C for 10 min and were immediately fixed. After fixation, cells were permeabilized with 0.2% Triton X-100 for 20 min and blocked with PBS containing 5% BSA for 30 min at RT. Cells were stained primary and secondary antibodies for 1 h at RT and then were mounted with DAPI containing mounting reagent (Molecular Probes). […] After fixation, cells were permeabilized with 0.2% Triton X-100 for 20 min and blocked with PBS containing 5% BSA for 30 min at RT. […] Fifty to sixty individual HSCs were scored for polarity of Cdc42. […]
# [7] = system: p38α; test: In vitro kinase assay for p38 (phospho-ATF2 read-out); type: biochemical, human; conditions: His-p38α, phospho-ATF2 levels; repeated 2 times (Suppl. Fig. 4b)
# Protocol: To examine the kinase activity of p38 in vitro, we used p38 MAP Kinase assay kit (9820, Cell Signaling). We added 0.5–1 μg of His-p38α for kinase assay and its activity was determined by phospho-ATF2 levels. […] FLAG-p38α, β, γ and δ were expressed in 293T cells (ATCC). p38 isoforms were immunoprecipitated with α-FLAG antibody (Sigma; 1:250 dilution) then we performed in vitro kinase assay.
molecule,measurement,setting,value
"CC(=O)N[C@@H](CS)C(=O)O [NAC, N-acetyl-L-cysteine]",5-FU-induced ROS in HSCs,"[1]; 5-FU 150 mg kg−1 and NAC 100 mg kg−1 i.p., ROS after 24 hours, n=3",reversed
same,rescue of TXNIP−/− mice from 5-FU-induced leucopenia (survival),"[1]; young mice, 5-FU 150 mg kg−1, NAC 100 mg kg−1 i.p. daily from day −1, n=10",fully rescued
same,ROS level in HSCs,[2],decreased
same,p38 activation in HSCs,[2],decreased
C[S+]([O-])c1ccc(-c2nc(-c3ccncc3)c(-c3ccc(F)cc3)[nH]2)cc1 (stereo not shown) [SB203580],solubility,[3],DMSO soluble
same,p38 activity and ROS in donor-derived HSCs,[4],maintained low levels of p38 activity and ROS
same,p38 interaction ability with TXNIP,[5],did not affect
same,% of polarized cells (Old HSCs),[6],76.9%
YGRKKRRQRRR [TAT],% of polarized cells (Old HSCs),[6],9.3%
"GST-TXNIP-T: GST-fused truncation mutant for TXNIP (150a.a–317a.a) (protein, left off: GST, end not stated, kept) DVNTPDLMAPVSAKKEKKVSCMFIPDGRVSVSARIDRKGFCEGDEISIHADFENTCSRIVVPKAAIVARHTYLANGQTKVLTQKLSSVRGNHIISGTCASWRGKSLRVQKIRPSILGCNILRVEYSLLIYVSVPGSKKVILDLPLVIGSRSGLSSRTSSMASRTSSEM",p38 kinase activity in vitro,[7],inhibited p38 kinase activity in vitro
